22 compounds from PubChem BioAssay (NCI) can be followed below.

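Step 1: Grow cells in 96-well plates. Step 2: Expose to compound for 48 hours at 5 concentrations. Step 3: Interpolate endpoints linearly; if unreached, use highest concentration. The concentration for 50% growth inhibition is given as GI50. TGI: total growth inhibition.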

Some test systems named below: SW-620 colon; M14 melanoma; KM12 colon; 786-0 renal; ACHN renal; SNB-75 CNS; SF-295 CNS; IGROV1 ovarian.
What all share (test): NCI anticancer screen, dose series, 48 h

On to `CC(=O)OCCOCNC(=S)N/N=C(\C)c1ccco1`, for which the TGI with SW-620 colon, with M14 melanoma, in the experiment on KM12 colon, in the experiment on 786-0 renal, in the experiment on ACHN renal and in the experiment on SNB-75 CNS was more than 100 µM in each case. The TGI in the experiment on SF-295 CNS and in the experiment on IGROV1 ovarian was more than 100 µM throughout.
Take `CCC(=O)O[C@@H]1C2C(OC(C)=O)C34COC(C)([C@@H]3C3C(C[C@]3(C)OC(C)=O)[C@@H](OC(=O)c3ccccc3)C4=O)[C@H](OC(C)=O)[C@@]2(OC(C)=O)C[C@@H]1C` (stereo partly specified): the TGI in the experiment with SW-620 colon is more than 100 µM; with M14 melanoma it was more than 100 µM; in the experiment on KM12 colon, more than 100 µM; with 786-0 renal, 29.2 µM; in the experiment with ACHN renal, more than 100 µM; in the experiment on SNB-75 CNS, 12.4 µM. Besides, the TGI with SF-295 CNS was determined as 48.7 µM; in the experiment on IGROV1 ovarian, 40 µM.
On to `Cn1cc(C(=O)C2CCCCC2)ccc1=O`, for which the TGI with SW-620 colon, in the experiment on M14 melanoma, in the experiment with KM12 colon, in the experiment with 786-0 renal, in the experiment on ACHN renal and with SNB-75 CNS was more than 100 µM throughout. The TGI with SF-295 CNS and in the experiment with IGROV1 ovarian was more than 100 µM throughout.
Take `COc1ccccc1NC(=O)C1=C(C)NC(C)=C(C(=O)Nc2ccccc2OC)C1c1ccc(C(C)C)cc1`: the TGI with SW-620 colon, in the experiment on M14 melanoma, in the experiment on KM12 colon, with 786-0 renal, in the experiment on ACHN renal and in the experiment with SNB-75 CNS was more than 100 µM throughout. For the same compound, the TGI in the experiment on SF-295 CNS and with IGROV1 ovarian was more than 100 µM in each case.
As for `CC(CN(CP(=O)([O-])[O-])CP(=O)([O-])[O-])N(CP(=O)([O-])[O-])CP(=O)([O-])[O-].N[C@@H]1CCCC[C@@H]1N.[Pt+2]` (stereo unspecified), the GI50 with SW-620 colon, in the experiment on M14 melanoma, with KM12 colon, with 786-0 renal, in the experiment with ACHN renal and in the experiment on SNB-75 CNS was more than 100 µM throughout. The GI50 with SF-295 CNS and in the experiment with IGROV1 ovarian was more than 100 µM in each case. Also, the TGI with SW-620 colon, in the experiment on M14 melanoma, with KM12 colon, with 786-0 renal, in the experiment on ACHN renal and in the experiment with SNB-75 CNS was more than 100 µM each time. Besides, the TGI with SF-295 CNS and with IGROV1 ovarian was more than 100 µM in each case.
In the case of `Cc1ccc(S(=O)(=O)N2CCCCC2CCO)cc1` (stereo unspecified), the TGI in the experiment with SW-620 colon, in the experiment with M14 melanoma, in the experiment on KM12 colon, in the experiment on 786-0 renal, with ACHN renal and in the experiment with SNB-75 CNS was more than 100 µM in each case. Besides, the TGI with SF-295 CNS and with IGROV1 ovarian was more than 100 µM in each case.
In the case of `Cc1cc(Cl)ccc1NC(=O)C1C(=O)N(c2ccc(Cl)cc2C)C(=O)/C1=N\N` (stereo unspecified), the TGI in the experiment with SW-620 colon, with M14 melanoma, with KM12 colon, with 786-0 renal, with ACHN renal and in the experiment with SNB-75 CNS was more than 100 µM in each case. The TGI in the experiment with SF-295 CNS and in the experiment on IGROV1 ovarian was more than 100 µM in each case.
Consider `O=C(/C=C/c1ccccc1F)C(c1ccccc1)c1ccccc1`, for which the TGI with SW-620 colon was 11.5 µM; in the experiment on M14 melanoma it was 6.81 µM; in the experiment with KM12 colon, 15 µM; in the experiment with 786-0 renal it was 5.8 µM; in the experiment with ACHN renal, 7.66 µM; with SNB-75 CNS, 19.2 µM. Besides, the TGI with SF-295 CNS worked out at 5.91 µM; with IGROV1 ovarian, 30.7 µM.
Turning to `CC(C)(C)c1cc(C(O)(C(F)(F)F)C(F)(F)F)c2c(c1)C(C(F)(F)F)(C(F)(F)F)OC(c1ccccc1)(C(C)(C)C)N2` (stereo unspecified), the TGI with SW-620 colon was 16.7 µM; with M14 melanoma, 12.3 µM; in the experiment with KM12 colon, 17.6 µM; in the experiment on 786-0 renal, more than 100 µM; in the experiment with ACHN renal, 14 µM; with SNB-75 CNS, 15.1 µM. Further, the TGI was 19.8 µM with SF-295 CNS and 16.7 µM in the experiment with IGROV1 ovarian.
`O=C1C(c2ccccc2)=C(c2ccccc2)C(c2ccccc2)/C1=C1\C(=O)C(c2ccccc2)=C(c2ccccc2)C1c1ccccc1` (stereo unspecified): the TGI with SW-620 colon, in the experiment with M14 melanoma, in the experiment with KM12 colon, in the experiment with 786-0 renal, in the experiment on ACHN renal and with SNB-75 CNS was more than 100 µM throughout. Further, the TGI with SF-295 CNS and in the experiment on IGROV1 ovarian was more than 100 µM each time.
On to `CC(C)(C)c1ccccc1NS(=O)(=O)c1ccccc1`, for which the TGI with SW-620 colon, in the experiment on M14 melanoma, in the experiment on KM12 colon, in the experiment with 786-0 renal, with ACHN renal and in the experiment with SNB-75 CNS was more than 100 µM each time. In addition, the TGI with SF-295 CNS and in the experiment with IGROV1 ovarian was more than 100 µM each time.
For `Cc1cccc(C)c1NC(=O)C(=O)C1C(=O)N(c2ccccc2)N=C1N` (stereo unspecified), the TGI in the experiment with SW-620 colon, with M14 melanoma, in the experiment on KM12 colon, with 786-0 renal, in the experiment on ACHN renal and in the experiment on SNB-75 CNS was more than 100 µM in each case. The TGI with SF-295 CNS and in the experiment with IGROV1 ovarian was more than 100 µM throughout.
For `CC(=O)O[C@H]1CC[C@@]2(C)C(=CC[C@@H]3C2CC[C@]2(C)Nc4oncc4CC32)C1` (stereo partly specified), the TGI with SW-620 colon is more than 100 µM; with M14 melanoma, more than 100 µM; in the experiment on KM12 colon, 61.4 µM; in the experiment with 786-0 renal, more than 100 µM; in the experiment with ACHN renal it was 72.4 µM; in the experiment with SNB-75 CNS, more than 100 µM. The TGI with SF-295 CNS and in the experiment on IGROV1 ovarian was more than 100 µM throughout.
With `CCCCCCCCCCCCC(Br)C(=O)SCCNC(=O)CCNC(=O)[C@@H](O)C(C)(C)COP(=O)(O)OP(=O)(O)OCC1OC(n2cnc3c(N)ncnc32)C(O)C1OP(=O)(O)O` (stereo partly specified), the TGI in the experiment on SW-620 colon, with M14 melanoma, with KM12 colon, in the experiment with 786-0 renal, with ACHN renal and in the experiment on SNB-75 CNS was more than 56.5 µM each time. Also, the TGI in the experiment with SF-295 CNS and in the experiment with IGROV1 ovarian was more than 56.5 µM each time.
Take `CCOC(=O)[C@H]1Nc2ccc(O)cc2C2c3ccccc3CC21` (stereo partly specified): the TGI in the experiment with SW-620 colon, in the experiment on M14 melanoma, with KM12 colon, in the experiment on 786-0 renal, in the experiment with ACHN renal and in the experiment with SNB-75 CNS was more than 100 µM throughout. The same compound gave a TGI in the experiment with IGROV1 ovarian of more than 100 µM.
Consider `CCCCCCCCCCCCCC(=O)OCC1OC(OC)C(NC(=O)N(CCCl)N=O)C(O)C1O` (stereo unspecified), for which the TGI in the experiment with SW-620 colon worked out at 30.9 µM; in the experiment with M14 melanoma it was 39.6 µM; in the experiment on KM12 colon, 64.4 µM; with 786-0 renal, 17 µM; with ACHN renal, 49.1 µM; with SNB-75 CNS it was 73.5 µM. In the experiment with IGROV1 ovarian, this compound yielded a TGI of more than 100 µM.
In the case of `CCOc1ccc(NC(=O)C2=C(C)NC(C)=C(C(=O)Nc3ccc(OCC)cc3)C2c2ccc([N+](=O)[O-])cc2)cc1`, the TGI is more than 100 µM in the experiment with SW-620 colon; more than 100 µM in the experiment on M14 melanoma; more than 100 µM in the experiment on KM12 colon; more than 100 µM in the experiment on 786-0 renal; 87.4 µM with ACHN renal; more than 100 µM with SNB-75 CNS. The TGI in the experiment on SF-295 CNS and in the experiment on IGROV1 ovarian was more than 100 µM in each case.
Take `O=S1(=O)CSc2ccc3ccccc3c2-c2c1ccc1ccccc21`: the TGI in the experiment with SW-620 colon, with M14 melanoma, in the experiment with KM12 colon, in the experiment on 786-0 renal, in the experiment with ACHN renal and in the experiment on SNB-75 CNS was more than 100 µM each time. Also, the TGI in the experiment with SF-295 CNS and in the experiment with IGROV1 ovarian was more than 100 µM each time.
On to `C[Si](C)(C)/C(Br)=C\CCN1C(=O)CCC1O` (stereo unspecified), for which the TGI in the experiment with SW-620 colon, in the experiment on M14 melanoma, with KM12 colon, in the experiment with 786-0 renal, in the experiment on ACHN renal and in the experiment with SNB-75 CNS was more than 100 µM throughout. The TGI in the experiment with SF-295 CNS and in the experiment with IGROV1 ovarian was more than 100 µM in each case.
For the compound `N#CC(C#N)=C1NC(=O)C(c2ccccc2)C(=O)N1` (stereo unspecified), the TGI in the experiment on SW-620 colon, in the experiment on M14 melanoma, with KM12 colon, with 786-0 renal, in the experiment with SNB-75 CNS and in the experiment on SF-295 CNS was more than 100 µM each time. This compound also gave a TGI in the experiment on IGROV1 ovarian of more than 100 µM.
As for `COC(=O)C1Cc2c([nH]c3ccccc23)C=N1` (stereo unspecified), the TGI in the experiment on SW-620 colon, with M14 melanoma, with KM12 colon, in the experiment on 786-0 renal, in the experiment with ACHN renal and in the experiment on SNB-75 CNS was more than 100 µM in each case. Moreover, the TGI with SF-295 CNS and with IGROV1 ovarian was more than 100 µM in each case.
For `COC(=O)/C(C#N)=C1\N=NNN1CCCc1ccccc1`, the TGI with SW-620 colon, in the experiment on M14 melanoma, in the experiment with KM12 colon, in the experiment with 786-0 renal, in the experiment with ACHN renal and in the experiment with SNB-75 CNS was more than 100 µM in each case. For the same compound, the TGI with SF-295 CNS and in the experiment with IGROV1 ovarian was more than 100 µM each time.
